Laboratory results taken from patent publication US20120142646A1, “Novel Compounds 621” (priority 2006, published 2012).

Target: T1, Adrenergic β2 (Homo sapiens, UniProt P07550)
T1 construct: Adherent H292 cells were removed from tissue culture flasks; endogenous in cells; host or cells: H292 cells
Assay: Adrenergic β2 mediated cAMP production in H292 cells (AlphaScreen cAMP detection)
Assay type: cell-based
Parameters: key to β2 Int Act: fraction of formoterol maximum activity (formoterol = 1)
Details: Intrinsic Activity as a fraction relative to the maximum activity determined for formoterol
Description: Adrenergic β2 Mediated cAMP Production
H292 cells were grown in 225 cm2 flasks incubator at 37° C., 5% CO2 in RPMI medium containing, 10% (v/v) FBS (foetal bovine serum) and 2 mM L-glutamine.
Adherent H292 cells were removed from tissue culture flasks by treatment with Accutase™ cell detachment solution for 15 minutes. Flasks were incubated for 15 minutes in a humidified incubator at 37° C., 5% CO2. Detached cells were re-suspended in RPMI media (containing 10% (v/v) FBS and 2 mM L-glutamine) at 1×10^6 cells per mL. 10000 cells in 100 μL were added to each well of a tissue-culture-treated 96-well plate and the cells incubated overnight in a humidified incubator at 37° C., 5% CO2. The culture media was removed and cells were washed twice with 100 μL assay buffer and replaced with 50 μL assay buffer (HBSS solution containing 10 mM HEPES pH7.4 and 5 mM glucose). Cells were rested at room temperature for 20 minutes after which time 25 μL of rolipram (1.2 mM made up in assay buffer containing 2.4% (v/v) dimethylsulphoxide) was added. Cells were incubated with rolipram for 10 minutes after which time test compounds were added and the cells were incubated for 60 minutes at room temperature. The final rolipram concentration in the assay was 300 μM and final vehicle concentration was 1.6% (v/v) dimethylsulphoxide. The reaction was stopped by removing supernatants, washing once with 100 μL assay buffer and replacing with 50 μL lysis buffer. The cell monolayer was frozen at −80° C. for 30 minutes (or overnight).
AlphaScreen™ cAMP Detection
The concentration of cAMP (cyclic adenosine monophosphate) in the cell lysate was determined using AlphaScreen™ methodology. The frozen cell plate was thawed for 20 minutes on a plate shaker then 10 μL of the cell lysate was transferred to a 96-well white plate. 40 μL of mixed AlphaScreen™ detection beads pre-incubated with biotinylated cAMP, was added to each well and the plate incubated at room temperature for 10 hours in the dark. The AlphaScreen™ signal was measured using an EnVision spectrophotometer (Perkin-Elmer Inc.) with the recommended manufacturer's settings. cAMP concentrations were determined by reference to a calibration curve determined in the same experiment using standard cAMP concentrations. Concentration response curves for agonists were constructed and data was fitted to a four parameter logistic equation to determine both the pEC50 and Intrinsic Activity. Intrinsic Activity was expressed as a fraction relative to the maximum activity determined for formoterol in each experiment.

T1 sequence (P07550 whole entry): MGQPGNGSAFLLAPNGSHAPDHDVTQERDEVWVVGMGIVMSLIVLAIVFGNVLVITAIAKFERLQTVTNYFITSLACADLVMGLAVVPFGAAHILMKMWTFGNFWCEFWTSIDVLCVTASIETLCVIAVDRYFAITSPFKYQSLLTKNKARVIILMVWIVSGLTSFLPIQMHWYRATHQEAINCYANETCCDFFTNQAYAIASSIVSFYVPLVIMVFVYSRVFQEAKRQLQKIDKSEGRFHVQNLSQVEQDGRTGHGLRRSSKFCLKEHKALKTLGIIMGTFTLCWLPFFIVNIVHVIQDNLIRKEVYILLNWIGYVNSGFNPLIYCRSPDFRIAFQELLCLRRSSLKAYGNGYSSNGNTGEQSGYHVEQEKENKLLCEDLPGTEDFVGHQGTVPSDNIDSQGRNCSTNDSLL

Row | SMILES | β2 Int Act
1 | O=C1COc2c(CCNCCN(C(=O)CCNCCc3ccc(Cl)c(Cl)c3)C3CCCCCC3)ccc(O)c2N1 [Example 26, N-Cycloheptyl-3-(3,4-dichlorophenethylamino)-N-(2-(2-(5-hydroxy-3-oxo-3,4-dihydro-2H-benzo[b][1,4]oxazin-8-yl)ethylamino)ethyl)propanamide bis(trifluoroacetate)] | 0.74
2 | O=C1COc2c(CCNCCN(C(=O)CCNCCc3cccc(Cl)c3)C3CCCCC3)ccc(O)c2N1 [Example 27, 3-(3-Chlorophenethylamino)-N-cyclohexyl-N-(2-(2-(5-hydroxy-3-oxo-3,4-dihydro-2H-benzo[b][1,4]oxazin-8-yl)ethylamino)ethyl)propanamide bis(trifluoroacetate)] | 0.89
3 | O=C1COc2c(CCNCCN(C(=O)CCNCCc3ccccc3Cl)C3CCCCC3)ccc(O)c2N1 [Example 28, 3-(2-Chlorophenethylamino)-N-cyclohexyl-N-(2-(2-(5-hydroxy-3-oxo-3,4-dihydro-2H-benzo[b][1,4]oxazin-8-yl)ethylamino)ethyl)propanamide bis(trifluoroacetate)] | 0.86
4 | O=C1COc2c(CCNCCN(C(=O)CCNCCc3cccc(Cl)c3Cl)C3CCCCC3)ccc(O)c2N1 [Example 29, N-Cyclohexyl-3-(2,3-dichlorophenethylamino)-N-(2-(2-(5-hydroxy-3-oxo-3,4-dihydro-2H-benzo[b][1,4]oxazin-8-yl)ethylamino)ethyl)propanamide bis(trifluoroacetate)] | 0.91
5 | O=C1COc2c(CCNCCN(C(=O)CCNCCc3ccc(Cl)c(Cl)c3)C3CCCCC3)ccc(O)c2N1 [Example 30, N-Cyclohexyl-3-(3,4-dichlorophenethylamino)-N-(2-(2-(5-hydroxy-3-oxo-3,4-dihydro-2H-benzo[b][1,4]oxazin-8-yl)ethylamino)ethyl)propanamide bis(trifluoroacetate)] | 0.92
6 | O=C1COc2c(CCNCCN(C(=O)CCNCCc3ccc(Cl)cc3Cl)C3CCCCC3)ccc(O)c2N1 [Example 31, N-Cyclohexyl-3-(2,4-dichlorophenethylamino)-N-(2-(2-(5-hydroxy-3-oxo-3,4-dihydro-2H-benzo[b][1,4]oxazin-8-yl)ethylamino)ethyl)propanamide bis(trifluoroacetate)] | 0.94
7 | Cc1ccc(F)c(CCNCCC(=O)N(CCNCCc2ccc(O)c3c2OCC(=O)N3)C2CCCCC2)c1 [Example 33, N-Cyclohexyl-3-(2-fluoro-5-methylphenethylamino)-N-(2-(2-(5-hydroxy-3-oxo-3,4-dihydro-2H-benzo[b][1,4]oxazin-8-yl)ethylamino)ethyl)propanamide bis(trifluoroacetate)] | 0.9
8 | O=C1COc2c(CCNCCN(C(=O)CCNCCc3cc(Cl)ccc3F)C3CCCCC3)ccc(O)c2N1 [Example 34, 3-(5-Chloro-2-fluorophenethylamino)-N-cyclohexyl-N-(2-(2-(5-hydroxy-3-oxo-3,4-dihydro-2H-benzo[b][1,4]oxazin-8-yl)ethylamino)ethyl)propanamide bis(trifluoroacetate)] | 0.9
9 | O=C1COc2c(CCNCCN(C(=O)CCNCCc3cc(F)cc(F)c3)C3CCCCC3)ccc(O)c2N1 [Example 35, N-Cyclohexyl-3-(3,5-difluorophenethylamino)-N-(2-(2-(5-hydroxy-3-oxo-3,4-dihydro-2H-benzo[b][1,4]oxazin-8-yl)ethylamino)ethyl)propanamide bis(trifluoroacetate)] | 0.87
10 | O=C1COc2c(CCNCCN(C(=O)CCNCCc3cccc(F)c3F)C3CCCCC3)ccc(O)c2N1 [Example 36, N-Cyclohexyl-3-(2,3-difluorophenethylamino)-N-(2-(2-(5-hydroxy-3-oxo-3,4-dihydro-2H-benzo[b][1,4]oxazin-8-yl)ethylamino)ethyl)propanamide bis(trifluoroacetate)] | 0.91
11 | O=C1COc2c(CCNCCN(C(=O)CCNCCc3ccc(F)c(Cl)c3)C3CCCCC3)ccc(O)c2N1 [Example 37, 3-(3-Chloro-4-fluorophenethylamino)-N-cyclohexyl-N-(2-(2-(5-hydroxy-3-oxo-3,4-dihydro-2H-benzo[b][1,4]oxazin-8-yl)ethylamino)ethyl)propanamide bis(trifluoroacetate)] | 0.89
12 | O=C1COc2c(CCNCCN(C(=O)CCNCCc3cc(F)ccc3F)C3CCCCC3)ccc(O)c2N1 [Example 38, N-Cyclohexyl-3-(2,5-difluorophenethylamino)-N-(2-(2-(5-hydroxy-3-oxo-3,4-dihydro-2H-benzo[b][1,4]oxazin-8-yl)ethylamino)ethyl)propanamide bis(trifluoroacetate)] | 0.98
13 | O=C1COc2c(CCNCCN(C(=O)CCNCCc3cccc(Cl)c3F)C3CCCCC3)ccc(O)c2N1 [Example 39, 3-(3-Chloro-2-fluorophenethylamino)-N-cyclohexyl-N-(2-(2-(5-hydroxy-3-oxo-3,4-dihydro-2H-benzo[b][1,4]oxazin-8-yl)ethylamino)ethyl)propanamide bis(trifluoroacetate)] | 0.98
14 | Cc1cc(CCNCCC(=O)N(CCNCCc2ccc(O)c3c2OCC(=O)N3)C2CCCCC2)ccc1F [Example 40, N-Cyclohexyl-3-(4-fluoro-3-methylphenethylamino)-N-(2-(2-(5-hydroxy-3-oxo-3,4-dihydro-2H-benzo[b][1,4]oxazin-8-yl)ethylamino)ethyl)propanamide bis(trifluoroacetate)] | 0.96
15 | O=C1COc2c(CCNCCN(C(=O)CCNCCc3cc(F)cc(Cl)c3)C3CCCCC3)ccc(O)c2N1 [Example 41, 3-(3-Chloro-5-fluorophenethylamino)-N-cyclohexyl-N-(2-(2-(5-hydroxy-3-oxo-3,4-dihydro-2H-benzo[b][1,4]oxazin-8-yl)ethylamino)ethyl)propanamide bis(trifluoroacetate)] | 0.95
16 | O=C1COc2c(CCNCCN(C(=O)CCNCCc3ccc(F)c(F)c3)C3CCCCC3)ccc(O)c2N1 [Example 42, N-Cyclohexyl-3-(3,4-difluorophenethylamino)-N-(2-(2-(5-hydroxy-3-oxo-3,4-dihydro-2H-benzo[b][1,4]oxazin-8-yl)ethylamino)ethyl)propanamide bis(trifluoroacetate)] | 0.9
17 | O=C1COc2c(CCNCCN(C(=O)CCNCCc3ccc(C(=O)O)cc3)C3CCCCC3)ccc(O)c2N1 [Example 43, 4-(2-(3-(Cyclohexyl(2-(2-(5-hydroxy-3-oxo-3,4-dihydro-2H-benzo[b][1,4]oxazin-8-yl)ethylamino)ethyl)amino)-3-oxopropylamino)ethyl)benzoic acid bis(trifluoroacetate)] | 0.97
18 | CCCC[C@@H](C)N(CCNCCc1ccc(O)c2c1OCC(=O)N2)C(=O)CCNCCc1cccc(Cl)c1 [Example 44, (R)-3-(3-Chlorophenethylamino)-N-(hexan-2-yl)-N-(2-(2-(5-hydroxy-3-oxo-3,4-dihydro-2H-benzo[b][1,4]oxazin-8-yl)ethylamino)ethyl)propanamide bis(trifluoroacetate)] | 0.89
19 | CCCC[C@@H](C)N(CCNCCc1ccc(O)c2c1OCC(=O)N2)C(=O)CCNCCc1ccc(Cl)cc1 [Example 45, (R)-3-(4-Chlorophenethylamino)-N-(hexan-2-yl)-N-(2-(2-(5-hydroxy-3-oxo-3,4-dihydro-2H-benzo[b][1,4]oxazin-8-yl)ethylamino)ethyl)propanamide bis(trifluoroacetate)] | 0.89
